Source: ChEMBL document CHEMBL3885861, “Open TG-GATES”

Species on record: Rattus norvegicus
Test: Open TG-GATES - Regimen: Single
Format: toxicity, organism-based, Sprague-Dawley
Design: regimen Single, gender Male, age 6 weeks
Conditions: in vivo, po, route gavage; for APTT / Bas / Eos / Fbg / Hb / Ht / Lym / MCH / MCHC / MCV / Mono / Neu / PT / Plat / RBC / Ret / WBC: tissue Blood; for KIDNEY_L / KIDNEY_R / KIDNEY_TOTAL: tissue Kidney; for LIVER: tissue Liver; for A/G / ALP / ALT / AST / BUN / CRE / Ca / Cl / DBIL / GLC / IP / K / LDH / Na / PL / RALB / TBIL / TC / TG / TP / gamma-GTP: tissue Plasma
[1] = 0 mg/kg, 3 h, dose level Control
[2] = 0 mg/kg, 6 h, dose level Control
[3] = 0 mg/kg, 9 h, dose level Control
[4] = 0 mg/kg, 24 h, dose level Control
[5] = 100 mg/kg, 24 h, dose level Low

## O=C(O)c1cc(/N=N/c2ccc(S(=O)(=O)Nc3ccccn3)cc2)ccc1O [SULFASALAZINE]
[1]
  TERMINAL_BW: 209.5 g
  APTT: 18.5 s
  Bas: 0%
  Eos: 0.8%
  Fbg: 220.4 mg/dL
  Hb: 12.8 g/dL
  Ht: 38.5%
  Lym: 80.4%
  MCH: 21.2 pg
  MCHC: 33.4%
  MCV: 63.4 fL
  Mono: 1.8%
  Neu: 16.4%
  PT: 12.8 s
  Plat: 116.8 x10_4/uL
  RBC: 607.8 x10_4/ul
  Ret: 7.5%
  WBC: 77.9 x10_2/uL
  KIDNEY_L: 0.9 g
  KIDNEY_R: 0.9 g
  KIDNEY_TOTAL: 1.9 g
  LIVER: 9.9 g
  A/G: 1.5
  ALP: 1055 IU/L
  ALT: 36.8 IU/L
  AST: 60.2 IU/L
  BUN: 12 mg/dL
  CRE: 0.4 mg/dL
  Ca: 10.6 mg/dL
  Cl: 101.6 meq/L
  DBIL: 0.074 mg/dL
  GLC: 196 mg/dL
  IP: 9.4 mg/dL
  K: 3.9 meq/L
  LDH: 182 IU/L
  Na: 140.2 meq/L
  PL: 140.6 mg/dL
  RALB: 3.2 g/dL
  TBIL: 0.1 mg/dL
  TC: 78 mg/dL
  TG: 73.8 mg/dL
  TP: 5.5 g/dL
  gamma-GTP: 1.4 IU/L
[2]
  TERMINAL_BW: 206.9 g
  APTT: 20.7 s
  Bas: 0%
  Eos: 1%
  Fbg: 224 mg/dL
  Hb: 13.2 g/dL
  Ht: 38.3%
  Lym: 75.8%
  MCH: 21.8 pg
  MCHC: 34.4%
  MCV: 63.6 fL
  Mono: 2.8%
  Neu: 19.2%
  PT: 12.9 s
  Plat: 114.7 x10_4/uL
  RBC: 602.8 x10_4/ul
  Ret: 7.7%
  WBC: 74.8 x10_2/uL
  KIDNEY_L: 1 g
  KIDNEY_R: 1 g
  KIDNEY_TOTAL: 2 g
  LIVER: 9.4 g
  A/G: 1.6
  ALP: 989.2 IU/L
  ALT: 35.8 IU/L
  AST: 65.8 IU/L
  BUN: 10.4 mg/dL
  CRE: 0.3 mg/dL
  Ca: 10.6 mg/dL
  Cl: 101.6 meq/L
  DBIL: 0.07 mg/dL
  GLC: 189.2 mg/dL
  IP: 9.4 mg/dL
  K: 4 meq/L
  LDH: 182.6 IU/L
  Na: 140.6 meq/L
  PL: 141.2 mg/dL
  RALB: 3.3 g/dL
  TBIL: 0.1 mg/dL
  TC: 73.2 mg/dL
  TG: 58 mg/dL
  TP: 5.4 g/dL
  gamma-GTP: 1.2 IU/L
[3]
  TERMINAL_BW: 205 g
  APTT: 18.9 s
  Bas: 0%
  Eos: 1%
  Fbg: 213.2 mg/dL
  Hb: 13.1 g/dL
  Ht: 38.3%
  Lym: 72.6%
  MCH: 21.5 pg
  MCHC: 34.1%
  MCV: 63 fL
  Mono: 3%
  Neu: 22.2%
  PT: 12.8 s
  Plat: 115.1 x10_4/uL
  RBC: 608.8 x10_4/ul
  Ret: 7%
  WBC: 85.1 x10_2/uL
  KIDNEY_L: 0.9 g
  KIDNEY_R: 0.9 g
  KIDNEY_TOTAL: 1.8 g
  LIVER: 8.7 g
  A/G: 1.6
  ALP: 765.6 IU/L
  ALT: 31.8 IU/L
  AST: 63.2 IU/L
  BUN: 11.4 mg/dL
  CRE: 0.4 mg/dL
  Ca: 10.5 mg/dL
  Cl: 103 meq/L
  DBIL: 0.078 mg/dL
  GLC: 207.2 mg/dL
  IP: 9.3 mg/dL
  K: 3.9 meq/L
  LDH: 194.2 IU/L
  Na: 141.2 meq/L
  PL: 142.2 mg/dL
  RALB: 3.4 g/dL
  TBIL: 0.1 mg/dL
  TC: 73.2 mg/dL
  TG: 76.4 mg/dL
  TP: 5.5 g/dL
  gamma-GTP: 2 IU/L
[4]
  TERMINAL_BW: 224.5 g
  APTT: 18.9 s
  Bas: 0%
  Eos: 1%
  Fbg: 220.8 mg/dL
  Hb: 13.3 g/dL
  Ht: 39%
  Lym: 73.8%
  MCH: 21.9 pg
  MCHC: 34%
  MCV: 64.3 fL
  Mono: 3.6%
  Neu: 20.4%
  PT: 12.1 s
  Plat: 117.1 x10_4/uL
  RBC: 607.2 x10_4/ul
  Ret: 6.9%
  WBC: 89.1 x10_2/uL
  KIDNEY_L: 1 g
  KIDNEY_R: 1 g
  KIDNEY_TOTAL: 2 g
  LIVER: 10.8 g
  A/G: 1.5
  ALP: 961.8 IU/L
  ALT: 45 IU/L
  AST: 75.8 IU/L
  BUN: 16.6 mg/dL
  CRE: 0.4 mg/dL
  Ca: 10.7 mg/dL
  Cl: 101.6 meq/L
  DBIL: 0.1 mg/dL
  GLC: 193.8 mg/dL
  IP: 8.1 mg/dL
  K: 4.1 meq/L
  LDH: 214.4 IU/L
  Na: 140 meq/L
  PL: 181.4 mg/dL
  RALB: 3.4 g/dL
  TBIL: 0.2 mg/dL
  TC: 89.4 mg/dL
  TG: 133 mg/dL
  TP: 5.6 g/dL
  gamma-GTP: 1.2 IU/L
100 mg/kg, 3 h, dose level Low
  TERMINAL_BW: 211 g
  APTT: 19.2 s
  Bas: 0%
  Eos: 1%
  Fbg: 216.6 mg/dL
  Hb: 13 g/dL
  Ht: 38.4%
  Lym: 77.2%
  MCH: 21.5 pg
  MCHC: 33.9%
  MCV: 63.4 fL
  Mono: 2.4%
  Neu: 18.6%
  PT: 12.5 s
  Plat: 129.8 x10_4/uL
  RBC: 605.4 x10_4/ul
  Ret: 7.1%
  WBC: 92.9 x10_2/uL
  KIDNEY_L: 1 g
  KIDNEY_R: 0.9 g
  KIDNEY_TOTAL: 1.9 g
  LIVER: 10.2 g
  A/G: 1.6
  ALP: 984.8 IU/L
  ALT: 37.4 IU/L
  AST: 69.4 IU/L
  BUN: 11 mg/dL
  CRE: 0.4 mg/dL
  Ca: 10.6 mg/dL
  Cl: 102.2 meq/L
  DBIL: 0.068 mg/dL
  GLC: 201.8 mg/dL
  IP: 9.5 mg/dL
  K: 3.7 meq/L
  LDH: 166.6 IU/L
  Na: 140.8 meq/L
  PL: 148 mg/dL
  RALB: 3.3 g/dL
  TBIL: 0.1 mg/dL
  TC: 80 mg/dL
  TG: 59.4 mg/dL
  TP: 5.4 g/dL
  gamma-GTP: 1.2 IU/L
100 mg/kg, 6 h, dose level Low
  TERMINAL_BW: 210.8 g
  APTT: 19 s
  Bas: 0%
  Eos: 1%
  Fbg: 218.6 mg/dL
  Hb: 13.2 g/dL
  Ht: 38.5%
  Lym: 73.6%
  MCH: 21.9 pg
  MCHC: 34.3%
  MCV: 63.9 fL
  Mono: 3%
  Neu: 21.2%
  PT: 12.7 s
  Plat: 111 x10_4/uL
  RBC: 603.2 x10_4/ul
  Ret: 7.2%
  WBC: 89.7 x10_2/uL
  KIDNEY_L: 1 g
  KIDNEY_R: 1 g
  KIDNEY_TOTAL: 2 g
  LIVER: 9.7 g
  A/G: 1.6
  ALP: 986.4 IU/L
  ALT: 35.8 IU/L
  AST: 68.4 IU/L
  BUN: 10.2 mg/dL
  CRE: 0.4 mg/dL
  Ca: 10.6 mg/dL
  Cl: 101.8 meq/L
  DBIL: 0.066 mg/dL
  GLC: 193.6 mg/dL
  IP: 9.7 mg/dL
  K: 3.9 meq/L
  LDH: 198.6 IU/L
  Na: 140.2 meq/L
  PL: 148 mg/dL
  RALB: 3.3 g/dL
  TBIL: 0.1 mg/dL
  TC: 76.6 mg/dL
  TG: 61.2 mg/dL
  TP: 5.4 g/dL
  gamma-GTP: 1.6 IU/L
100 mg/kg, 9 h, dose level Low
  TERMINAL_BW: 204.7 g
  APTT: 19.3 s
  Bas: 0%
  Eos: 1%
  Fbg: 225.8 mg/dL
  Hb: 13.2 g/dL
  Ht: 38.8%
  Lym: 82.4%
  MCH: 21.4 pg
  MCHC: 34%
  MCV: 63 fL
  Mono: 3.4%
  Neu: 12.4%
  PT: 12.8 s
  Plat: 113 x10_4/uL
  RBC: 616.6 x10_4/ul
  Ret: 6.7%
  WBC: 76.6 x10_2/uL
  KIDNEY_L: 1 g
  KIDNEY_R: 1 g
  KIDNEY_TOTAL: 2 g
  LIVER: 8.7 g
  A/G: 1.6
  ALP: 932.8 IU/L
  ALT: 35.4 IU/L
  AST: 63.8 IU/L
  BUN: 9.4 mg/dL
  CRE: 0.3 mg/dL
  Ca: 10.6 mg/dL
  Cl: 102.2 meq/L
  DBIL: 0.068 mg/dL
  GLC: 194.2 mg/dL
  IP: 10.2 mg/dL
  K: 3.8 meq/L
  LDH: 198.8 IU/L
  Na: 139.8 meq/L
  PL: 145.4 mg/dL
  RALB: 3.3 g/dL
  TBIL: 0.1 mg/dL
  TC: 83 mg/dL
  TG: 41.6 mg/dL
  TP: 5.5 g/dL
  gamma-GTP: 1.2 IU/L
[5]
  TERMINAL_BW: 221.5 g
  APTT: 17.9 s
  Bas: 0%
  Eos: 1%
  Fbg: 234.6 mg/dL
  Hb: 13.2 g/dL
  Ht: 38.5%
  Lym: 81%
  MCH: 21.2 pg
  MCHC: 34.4%
  MCV: 61.8 fL
  Mono: 2.8%
  Neu: 13.8%
  PT: 12.5 s
  Plat: 123 x10_4/uL
  RBC: 624 x10_4/ul
  Ret: 6.3%
  WBC: 86.3 x10_2/uL
  KIDNEY_L: 1 g
  KIDNEY_R: 1 g
  KIDNEY_TOTAL: 2 g
  LIVER: 10.5 g
  A/G: 1.6
  ALP: 1020.4 IU/L
  ALT: 40.4 IU/L
  AST: 64.6 IU/L
  BUN: 15.2 mg/dL
  CRE: 0.4 mg/dL
  Ca: 10.8 mg/dL
  Cl: 101.4 meq/L
  DBIL: 0.092 mg/dL
  GLC: 184 mg/dL
  IP: 7.7 mg/dL
  K: 4.1 meq/L
  LDH: 213 IU/L
  Na: 139.8 meq/L
  PL: 158.2 mg/dL
  RALB: 3.5 g/dL
  TBIL: 0.1 mg/dL
  TC: 79.6 mg/dL
  TG: 88.8 mg/dL
  TP: 5.7 g/dL
  gamma-GTP: 1.6 IU/L
